The values below come from paper PMC4601023, “Novel anticancer agent, SQAP, binds to focal adhesion kinase and modulates its activity” (Scientific Reports, 2015).

One assay deals with VEGF (Homo sapiens, UniProt P15692). Nature of the assay: SPR analysis of SQAP-VEGF interaction. It counts as binding. The note with it: data not shown. An excerpt:
The phosphorylation of FAK in response to VEGF plays an important role in the regulation of endothelial cell migration during angiogenesis. Therefore we hypothesized that SQAP activity could potentially be mediated through binding to FAK. […] In this region, FAK interacts with paxillin through FAT domain and becomes autophosphorylated on Y397[29][30]. Y397 is an autophosphorylation site which is crucial for FAK activity and has been related to apoptosis and tumor growth. FAK is also phosphorylated at Y925, leading to the regulation of adhesion turnover and cell motility. Thus we chose to study the FAK phosphorylation on Y397 and Y925 residues. Initially, we examined whether SQAP affected phosphorylation of FAK in HUVEC cells stimulated with VEGF in the presence or absence of SQAP. […] Since SQMG was previously reported to bind to VEGF[34], we could not rule out the possibility of a binding between SQAP and VEGF so we analyzed this interaction by SPR. […] Therefore, we investigated whether SQAP could inhibit FAK phosphorylation independently of VEGF. We analyzed FAK phosphorylation in the absence of VEGF and observed that SQAP inhibited the phosphorylation of FAK signal within 1 h in a VEGF independent manner (Fig. 5B). Additionally, we treated HUVEC with VEGF in the presence of SQMG and SQP.
For orientation: Surface plasmon resonance follows binding to a sensor surface in real time, without labels.

The test system of the next assay is A549 cells. Nature of the assay: Wound healing assay, A549. It counts as cell-based, human. The settings on record: A549, 25 h, 1% FBS and fibronectin 10 μg/mL; control 46%. How it is done:
Figure 6 SQAP inhibits cell migration in vitro. (A) HUVEC cells were seeded and grown to 100% confluence in 60-mm diameter dishes. After generating a single scratch in the monolayer, the cells were cultured for 11 h in medium containing 1% FBS and VEGF (50 ng/mL) in the presence or absence of SQAP. Photographs were taken immediately after 11 h. (B) The change in wound width was measured as described in the Materials and Methods. (C) A549 cells were seeded and grown to 100% confluence in 60-mm diameter dishes. After generating a single scratch in the monolayer, the cells cultured for the 25 h in media containing 1% FBS and fibronectin (10 μg/ml) treated with SQAP or vehicle. Photographs were collected immediately after wounding and after 25 h. (D) The change in wound width was measured as described in the Materials and Methods. Cell migration was additionally examined in 96 well plates. HUVEC (E) and A549 cells (F) were seeded and grown into confluence overnight. After removing the stoppers, the live cells were stained with CellTracker^TM Green and incubated for the indicated time. The fluorescent emission signal was obtained with a plate reader. […]
Wound healing assay was analyzed by microscope imaging. […] Wound diameters in the images were measured and percentage of wound size was calculated as follows: [wound diameter at 11 or 25 h/wound diameter at 0 h] x 100.

The next assay has as its target T1, ADRM1 (Homo sapiens, UniProt Q16186).
T1 construct: ADRM1 and HR23B human full length proteins were purchased; His-tag; purchased ATgen (Gyeonggi-do, Korea)
As to the kind of experiment: SPR analysis, immobilized full length His-ADRM1. Format: binding. The settings on record: Biacore 3000, CM5 chip, 25 °C, read-out: dissociation constant (KD) for ADRM1. An excerpt:
SPR was utilized as an independent confirmation of the kinetic parameters between SQAP and the putative binding proteins. […] The recombinant proteins were then expressed in Escherichia coli and purified to homogeneity. In addition, full length, His-tagged ADRM1 and GST-tagged HR23B (GST-HR23B) were also used. The proteins were first immobilized on a CM5 sensor chip of the SPR biosensor (Biacore 3000). For GST-HR23B analysis, a GST protein was additionally immobilized and used as a control in order to eliminate possible nonspecific binding of SQAP. SQAP samples at different concentrations were then injected over the proteins immobilized on the sensor chip. As a negative control we used sulfoquynovosylpropanediol (SQP), which lacks the fatty acid moiety of SQAP (Fig. 1). […]
The binding kinetics of SCP-2, MFE-2, ADRM1, HR23B and FAK with SQAP and SQP were analyzed on a Biacore 3000 instrument (GE Healthcare, Little Chalfont, UK). […] The buffer of purified peptides was exchanged to HBS-P (150 mM NaCl, 0.005% Surfactant P20, 10 mM HEPES-NaOH pH 7.4) using a PD 10 column (GE Healthcare, Little Chalfont, UK) and the concentrations were quantified using DC protein assay kit (Bio-Rad Laboratories, Hercules, CA, USA). […] Kinetic parameters were determined by analyzing the data using BIAevaluation 4.1 software (GE Healthcare, Little Chalfont, UK).

T1 sequence (Q16186 whole entry): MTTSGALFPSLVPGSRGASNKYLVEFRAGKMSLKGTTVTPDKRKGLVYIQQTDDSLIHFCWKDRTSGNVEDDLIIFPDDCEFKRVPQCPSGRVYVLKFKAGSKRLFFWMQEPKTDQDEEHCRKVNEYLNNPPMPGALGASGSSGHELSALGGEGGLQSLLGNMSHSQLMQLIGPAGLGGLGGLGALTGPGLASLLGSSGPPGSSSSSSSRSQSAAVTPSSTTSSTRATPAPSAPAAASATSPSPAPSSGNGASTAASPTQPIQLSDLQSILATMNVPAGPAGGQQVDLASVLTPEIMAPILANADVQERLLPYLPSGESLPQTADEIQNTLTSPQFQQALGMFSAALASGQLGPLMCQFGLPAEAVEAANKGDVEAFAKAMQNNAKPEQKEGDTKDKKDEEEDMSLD
VEGF, sequence (P15692 whole entry, species assumed, the tested form may be a part): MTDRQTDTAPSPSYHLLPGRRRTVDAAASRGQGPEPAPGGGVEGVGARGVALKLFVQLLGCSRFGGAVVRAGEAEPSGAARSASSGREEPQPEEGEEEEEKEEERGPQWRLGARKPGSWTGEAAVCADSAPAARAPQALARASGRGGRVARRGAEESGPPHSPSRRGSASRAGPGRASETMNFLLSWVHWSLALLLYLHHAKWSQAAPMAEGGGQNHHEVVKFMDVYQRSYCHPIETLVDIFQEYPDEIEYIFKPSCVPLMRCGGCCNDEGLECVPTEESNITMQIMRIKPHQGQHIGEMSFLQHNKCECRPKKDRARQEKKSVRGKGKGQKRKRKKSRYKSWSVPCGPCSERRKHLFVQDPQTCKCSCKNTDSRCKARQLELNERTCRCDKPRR

For orientation: Kd means a measure of binding affinity in units of concentration. In the case of `CCCCCCCCCCCCCCCCCC(=O)OCCCO[C@H]1O[C@H](CS(=O)(=O)O)[C@@H](O)[C@H](O)[C@H]1O` [SQAP, sulfoquynovosylacylpropanediol], the “binding to VEGF (SPR)” value at VEGF is on record as “did bind”. This compound returned a wound size with A549 cells of 68%. In addition, the dissociation constant (Kd) at ADRM1 was determined as 9.65 µM.
